Data as given in patent US10058688B2 (Massachusetts Institute of Technology, priority 2012, dated 2018).
Read-outs that look alike come from different tables or passages of the source.

Key:
[1] = tested on: OVCAR-3 ovarian tumor cell line; settings: cited from earlier work
[2] = DrugBank, DB01229; cited from earlier work
[3] = tested on: SKOV3 cells; settings: for 2 hours; Royer et al.; used as positive control; cited from earlier work
[4] = tested on: SKOV3 luciferase-positive cells; assay: Treatment efficacy study; type: in vivo, nu/nu mice
Text: The nu/nu mice were inoculated with tumor cells on Day 0 and treatment was started on Day 14. […] The devices were sterilized with ethylene oxide prior to implantation. All animal care guidelines as listed in the animal protocol were followed. The animals were imaged 2 times a week, similar to the tumor induction study. The animals in the toxicity study were sacrificed on day 56 and their organs (kidney, liver, spleen, intestines and bone) were removed immediately upon euthanasia to be fixed in 10% formalin overnight.

[5] = tested on: ovarian cancer; settings: cited from earlier work
[6] = tested on: SKOV3 cells; assay: In vitro cytotoxicity study; type: cell-based, human; settings: 0.1 μg/mL over a period of 7 days, FIG. 5
Experimental: RPMI 1640 with 20% fetal bovine serum (FBS) was used for culturing A2780 and OVCAR3, and McCoy's 5a cell growth media with 10% FBS was used for SKOV3 propagation. The cells were seeded in 96-well plates at 10^4 cells/well. […] The percentage cell viability was calculated as a percentage of the untreated group at each time point.

Q: For `CC(=O)O[C@H]1C(=O)[C@@]2(C)[C@H]([C@H](OC(=O)c3ccccc3)[C@]3(O)C[C@H](OC(=O)[C@H](O)[C@@H](NC(=O)c4ccccc4)c4ccccc4)C(C)=C1C3(C)C)[C@]1(OC(C)=O)CO[C@@H]1C[C@@H]2O` [paclitaxel], which median survival ([1]; 10 mg/kg dose) is on record?
A: 60 days

Q: And the median survival ([1]; 40 mg/kg)?
A: about 70 days

Q: What about the “log P” value [2] of the same compound?
A: about 3.5

Q: Which “critical condition to kill ovarian tumor cells (concentration)” value [3] does the source give for `N.N.[Cl][Pt][Cl]` [cisplatin] here?
A: 10 µg/mL

Q: And the tumor size ([4]; IP bolus injection (10 mg/kg), 1 dose per week)?
A: remained relatively small

Q: What about the tumor mass ([4]; device or IP bolus 5 mg/kg 1x/wk from Day 14, vs untreated, FIG. 8) of the same compound?
A: significant tumor mass reduction

Q: What about the “subjects who completed all cycles of therapy” value ([5]; IP therapy) of the same compound?
A: 42%

Q: What about the overall survival ([5]; IP treatment, p=0.03) of the same compound?
A: 65.6 months

Q: And the “subjects who completed all cycles of therapy” value ([5]; IV therapy)?
A: 83%

Q: And the overall survival ([5]; IV treatment)?
A: 49.7 months

Q: And the “killing of tumor cells at 0.1 μg/mL” value [6]?
A: too low to kill tumor cells
